Values of other authors in PMC9620260 (Journal of Medicinal Chemistry, 2022).
Where two headings read alike, the source gives them in different places.

Tests used:
[1] = target: T. cruzi trans-sialidase (TcTS)
[2] = test system: T. cruzi
[3] = test system: V. cholerae sialidase
[4] = test system: SpNanA
[5] = test system: C. perfringens sialidase (CpNanI)
[6] = test system: bacterial sialidase
[7] = test system: Neu1; details: selective for Neu1 over the other isoenzymes
[8] = target: influenza viral NA
[9] = test system: sialidases
[10] = test system: sialyltransferases
[11] = test system: S. pneumoniae sialidases
[12] = not given; remark: listed apart in the source

## CC(=O)N[C@H]1[C@H]([C@H](O)[C@H](O)CO)O[C@@](Oc2ccc([N+](=O)[O-])cc2C(F)F)(C(=O)O)C[C@@H]1O [2-difluoromethyl-4-nitrophenyl glycoside of αNeu5Ac]
[1]; irreversible inhibitor of trans-sialidase
  IC50: 600 µM
[2]
  T. cruzi infection of mammalian cells: prevents T. cruzi infection of mammalian cells

## O=C(O)c1cc(O)c2c(c1)C(=O)c1cc(O)c(Cl)c(O)c1C2=O [6-chloro-9,10-dihydro-4,5,7-trihydroxy-9,10-dioxo-2-anthracenecarboxylic acid]
[1]; specific TcTS inhibitor
  IC50: 0.58 µM

## COc1ccc(C=CC(=O)C=C(O)C=Cc2ccc(O)c(O)c2)cc1O [7-(3,4-dihydroxyphenyl)-5-hydroxy-1-(3-hydroxy-4-methoxyphenyl) hepta-1,4,6-trien-3-one]
[3]
  inhibition of V. cholerae sialidase: inhibit
[4]
  inhibition of S. pneumoniae NanA: inhibit
[5]
  inhibition of C. perfringens sialidase: inhibit

## CC(=O)NC1C(O)C(F)C(F)(C(=O)O)OC1C(O)C(O)CN=[N+]=[N-] (stereo not shown) [9-azido-modified 2,3-diF-Neu5Ac]
[6]; effect of modification of 2,3-difluoro-Sia
  inhibitory activity against bacterial sialidases: increased inhibitory activity

## CCCCC(=O)NC[C@@H](O)[C@@H](O)[C@@H]1OC(C(=O)O)=C[C@H](O)[C@H]1NC(C)=O [C-9 Pentylamido derivative of DANA]
[7]
  IC50 against Neu1: micromolar

## CC(=O)N[C@H]1[C@H]([C@H](O)[C@H](O)CO)OC(C(=O)O)=C[C@@H]1O [DANA, 2-deoxy-2,3-dehydro-N-acetylneuraminic acid]
[8]; influenza viral neuraminidases
  Ki values: micromolar range
[1]
  IC50 against TcTS: several hundred

## COc1cc(C)c(C(=O)Oc2cc(C)c(C(=O)O)c(O)c2)c(O)c1 [Evernic acid]
[6]
  inhibition against bacterial sialidase: dose-dependent inhibition

## CC(=O)N[C@H]1[C@H]([C@H](O)[C@H](O)CO)OC(O)(C(=O)O)C[C@@H]1O (stereo partly shown) [Neu5Ac, N-acetylneuraminic acid]
[9]
  inhibition of sialidases: weak inhibitor

## COC(=O)C1(OC(C)=O)OC([C@H](OC(C)=O)[C@@H](COC(C)=O)OC(C)=O)C(NC(C)=O)C(OC(C)=O)C1F (stereo partly shown) [P-3Fax-Neu5Ac]
[10]
  inhibition of the sialyltransferases: cell-permeable specific inhibitor
other
  nephrotoxicity: well-known nephrotoxicity

## COc1cc2oc(-c3ccc(O)cc3O)c(CC=C(C)C)c(=O)c2c(O)c1/C=C/C(C)C [artocarpin]
[8]
  inhibitory activity against influenza sialidase: inhibitory activity
[11]
  inhibitory activity against S. pneumoniae sialidases: inhibitory activity

## O=C(CCc1ccccc1)C[C@@H]1C[C@@H](c2ccccc2)c2c(cc(/C=C/c3ccccc3)oc2=O)O1 [katsumadain A]
[8]
  inhibitory activity against influenza sialidase: inhibitory activity
[11]
  inhibitory activity against S. pneumoniae sialidases: inhibitory activity

## CCOC(=O)C1=C[C@@H](OC(CC)CC)[C@H](NC(C)=O)[C@@H](N)C1 [oseltamivir]
[12]
  side effects: neuropsychiatric side effects
